# Read-outs that look alike come from different tables or passages of the source.
# How the values were obtained:
# [1] = test system: GABAA receptor; test: Ex vivo autoradiography, GABAA receptor competition binding ([3H]muscimol vs GABA), medial prefrontal cortex; parameters: species or system rat
# Description: Rats used in ex vivo autoradiography (EVA) experiments were randomly assigned to one of four experimental groups characterized by either subchronic saline or PCP (as described above) along with either vehicle or vortioxetine-infused food (1.8 g vortioxetine/kg food weight, as described in the attentional set shifting task). On day 8 of PCP withdrawal, rats were anesthetized using CO2 and killed by decapitation. Brains were quickly and gently removed from the skull, flash frozen on powdered dry ice, and stored at -20°C until sectioning. […] After the tissue mounted on the microscope slides had dried thoroughly (in order to reduce damage from freezing), slides were packed into slide boxes with desiccator pellets, and stored at -20°C for use in EVA saturation binding and competition experiments.
# Each of the EVA procedures used in this study are variations on a similar theme. On the day of an experiment, slide-boxes were defrosted under a constant stream of air at room temperature until the boxes were dry and equilibrated with the environment in terms of temperature. […] Prior to any binding experiments, slides were preincubated in the appropriate preincubation buffer and dried at room temperature. Subsequently, tissue was incubated in an assay buffer containing a radioligand appropriate for the receptor of interest, then rinsed in assay buffer, and dried overnight in a vacuum desiccator. […] Finally, slides were opposed to a tritium-sensitive phosphor screen (Fuji imaging plate, GE Healthcare, Pittsburgh, PA, United States) for 5 days before being read in a phosphorimager (Typhoon FLA7000, GE Healthcare).
# Ki values for competition experiments were calculated separately for each animal, then aggregated to estimate sample averages and error. Ki values were calculated via non-linear regression, assuming a one-site competition binding, using GraphPad Prism version 6 for Windows (GraphPad software, La Jolla, CA, United States). pKi values were then calculated via the following formula: pKi = -Log10(Ki).
# [2] = test system: C57BL/6NCrlBr mice; test: Mouse object recognition (OR) task after subchronic PCP; type: in vivo
# Description: Subchronic PCP treatment: The subPCP administration regimen used in rats was conducted as described in ([Goetghebeur and Dias, 2009]), which is a reliable method for inducing deficits in our hands. Rats in the subPCP experiments received injections of 5 mg/mL PCP or vehicle (saline) s.c. at a 1 mL/kg injection volume twice per day for 7 days. […] The mouse subPCP regimen was conducted as described in [Pedersen et al. (2014)]. Briefly, mice received vehicle or PCP (1.3 mg/mL concentration, 10 mL/kg injection volume) s.c once per day for 14 days followed by a 7-day washout prior to experimentation.
# Object placement and OR tasks in mice were executed in Perspex boxes measuring 40 × 40 cm with dark gray walls and a white floor. The tests were conducted during the light phase, yet in a subdued light (≈20 lux) and with the radio turned on in the background. Each trial was recorder by a camera mounted above the test arenas and later scored manually.
# Objects in the mouse OP task consisted of small stork sculptures made of plaster, which were 11.5 cm in height, with a roughly rectangle-shaped base 7.5 cm in length and 4.8 cm in width. For the mouse OR task, objects consisted of (1) small cylindrical pepper mills (purchased empty, having never contained spice) made of clear plastic (10.5 cm in height, 4.5 cm diameter), and (2) small salt shakers made of light blue glass (again, purchased empty; 11.5 cm in height, 4.5 cm diameter). […]
# The primary dependent measure for the OR and object placement tasks was a novel object or novel placement preference score, which were calculated from raw object investigation times using the following equation: Preference Score = ITN/(ITN + ITF)^∗100, where ITN represents the investigation time for the novel object or placement, and ITF represents the investigation for the familiar object or placement. Total exploration times from the information and test trials were analyzed for OP and OR experiments. Preference score and total exploration time data was analyzed for treatment group differences using a one-way between-subjects ANOVA. […]
# [3] = test system: SERT; conditions: cited from earlier work
# [4] = test system: 5-HT7 receptors; conditions: 2014, cited from earlier work
# [5] = test system: 5-HT1B receptors; conditions: 2014, cited from earlier work
# [6] = test system: 5-HT3 receptor; conditions: 2014, cited from earlier work
# [7] = 10 mg/kg 1 h s.c., full occupancy, ref Leiser et al.
# [8] = subchronic dose used in the mouse OR and object placement tasks, ref Wallace et al., Waller et al., 2017
Structure (SMILES),effect of treatment on GABA pKi at the GABAA receptor ([1]; subPCP treatment on its own),"novel object preference score ([2]; subPCP/veh vs control mice, PCP 13 mg/kg s.c. once per day 14 days, 7-day washout, p < 0.001)","occupancy at the SERT ([3]; 1 mg/kg acute dose, ref Leiser et al., 2014)","occupancy at SERT ([3]; 10 mg/kg 1 h s.c., full occupancy, ref Leiser et al., 2014)","occupancy at the SERT ([3]; 0.22 g/kg subchronic dose (food), ref Waller et al., 2017)","occupancy at SERT ([3]; subchronic dose used in the mouse OR and object placement tasks, ref Wallace et al., 2014, Waller et al., 2017)","SERT occupancy ([3]; the vortioxetine doses used, ref Stenkrona et al., 2013, Leiser et al., 2014)","occupancy at 5-HT7 receptors ([4]; 10 mg/kg 1 h s.c., ref Leiser et al.)","occupancy at 5-HT7 receptors ([4]; subchronic dose used in the mouse OR and object placement tasks, expected, ref Wallace et al., Waller et al., 2017)","occupancy at 5-HT1B receptors [5, 7]","occupancy at 5-HT1B receptors [5, 8]","GABA pKi at the GABAA receptor, PCP/vortioxetine vs vehicle/vortioxetine group ([1]; subchronic vortioxetine combined with subPCP, p < 0.01)","increase in the affinity of GABA for the GABAA receptor ([1]; vehicle/vortioxetine vs saline/vehicle group, subchronic 1.8 g vortioxetine/kg food, p < 0.01)","novel object preference score, vehicle/vortioxetine vs vehicle/vehicle ([2]; mice without PCP, 10 mg/kg s.c. bolus then 0.6 g/kg chow)","novel object preference score vs subPCP/vehicle ([2]; subPCP/vortioxetine mice, 10 mg/kg s.c. bolus then 0.6 g/kg chow, p < 0.01)","occupancy at the 5-HT3 receptor ([6]; 1 mg/kg acute dose, ref Leiser et al.)","occupancy at 5-HT3 receptors [6, 7]","occupancy at 5-HT3 receptors [6, 8]"
"Cl.c1ccc(C2(N3CCCCC3)CCCCC2)cc1 [PCP, 1-(1-phenylcyclohexyl)-piperidine hydrochloride]",did not significantly alter,significantly lower novel object preference scores,,,,,,,,,,,,,,,,
Cc1ccc(Sc2ccccc2N2CCNCC2)c(C)c1 [vortioxetine],,,60–65%,≥ 80%,approximately 50%,full occupancy,50–90%,≈ 40%,negligible,≥ 80%,approximately 50%,significantly lower,approximately 2.5 fold,no statistically significant difference,significantly higher novel object preference scores,full occupancy,≥ 80%,full occupancy

# From paper PMC5845537 (Frontiers in Pharmacology, 2018)
